This passage reports IC50 results from patent US20070004660A1, “Synergistic Modulation of Flt3 Kinase Using Alkylquinolines and Alkylquinazolines” (priority 2005, published 2007).

The assay deals with T1, wild-type FLT3 receptor (Homo sapiens, UniProt P36888).
T1 construct: host or cells: Baf3 (murine B cell lymphoma line), stably transfected
T1 sequence (P36888 27-993): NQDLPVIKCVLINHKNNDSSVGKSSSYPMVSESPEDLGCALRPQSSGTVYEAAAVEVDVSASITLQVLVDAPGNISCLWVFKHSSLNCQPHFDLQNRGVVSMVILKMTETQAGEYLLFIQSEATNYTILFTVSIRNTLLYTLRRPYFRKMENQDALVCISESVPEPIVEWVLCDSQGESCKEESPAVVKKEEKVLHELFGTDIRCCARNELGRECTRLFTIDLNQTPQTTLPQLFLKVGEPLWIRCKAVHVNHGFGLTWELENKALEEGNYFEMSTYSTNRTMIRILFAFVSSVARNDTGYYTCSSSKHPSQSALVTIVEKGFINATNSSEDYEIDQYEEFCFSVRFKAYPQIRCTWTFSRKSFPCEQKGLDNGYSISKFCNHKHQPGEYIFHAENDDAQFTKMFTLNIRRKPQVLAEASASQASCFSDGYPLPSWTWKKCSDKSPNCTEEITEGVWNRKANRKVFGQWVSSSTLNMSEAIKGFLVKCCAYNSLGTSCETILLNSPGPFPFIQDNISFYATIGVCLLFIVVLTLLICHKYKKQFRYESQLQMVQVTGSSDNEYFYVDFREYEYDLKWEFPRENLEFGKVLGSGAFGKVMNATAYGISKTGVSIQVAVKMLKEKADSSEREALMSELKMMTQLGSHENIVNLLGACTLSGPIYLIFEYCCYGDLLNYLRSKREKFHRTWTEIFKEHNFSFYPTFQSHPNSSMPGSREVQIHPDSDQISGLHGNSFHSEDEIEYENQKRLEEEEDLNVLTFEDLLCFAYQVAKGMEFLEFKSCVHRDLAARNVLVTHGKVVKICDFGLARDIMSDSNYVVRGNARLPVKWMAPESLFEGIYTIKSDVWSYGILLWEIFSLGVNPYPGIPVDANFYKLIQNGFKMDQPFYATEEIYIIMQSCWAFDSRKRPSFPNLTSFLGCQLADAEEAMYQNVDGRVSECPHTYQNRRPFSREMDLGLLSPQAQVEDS
The assay can be described thus: Cell-based FLT3 receptor ELISA (FLT ligand-induced phosphorylation in Baf3 FLT3 cells). As to conditions: 100 ng/mL Flt ligand, uncertainty ±20%. The procedure, abridged:
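Receptor phosphotyrosine measured by sandwich ELISA (anti-FLT3 capture, HRP anti-pTyr, luminescence) in FLT3-transfected murine Baf3 cells given 1 h compound pretreatment and 10 min 100 ng/mL FLT ligand after overnight low-serum starvation; triplicates, IC50 from nonlinear regression.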
In general terms: ELISA stands for enzyme-linked immunosorbent assay.

Turning to `CCN1CCN(c2ccc3c(C4CCN(C(=O)Nc5ccc(N6CCOCC6)cc5)CC4)ncnc3c2)CC1` [Example 136, 4-[7-(4-Ethyl-piperazin-1-yl)-quinazolin-4-yl]-piperidine-1-carboxylic acid (4-morpholin-4-yl-phenyl)-amide], the IC50 worked out at 0.036 µM.
In the case of `O=C(Nc1ccc(N2CCOCC2)cc1)N1CCC(c2ncnc3cc(N4CCN(CCO)CC4)ccc23)CC1` [Example 137, 4-{7-[4-(2-Hydroxy-ethyl)-piperazin-1-yl]-quinazolin-4-yl}-piperidine-1-carboxylic acid (4-morpholin-4-yl-phenyl)-amide], the IC50 worked out at 0.041 µM.
With `CN1CCCN(c2ccc3c(C4CCN(C(=O)Nc5ccc(N6CCOCC6)cc5)CC4)ncnc3c2)CC1` [Example 138, 4-[7-(4-Methyl-[1,4]diazepan-1-yl)-quinazolin-4-yl]-piperidine-1-carboxylic acid (4-morpholin-4-yl-phenyl)-amide] the figure was 0.107 µM.
With `O=C(Nc1ccc(N2CCOCC2)cc1)N1CCC(c2ncnc3cc(N4CCC[C@H]4CO)ccc23)CC1` [Example 139, (S)-4-[7-(2-Hydroxymethyl-pyrrolidin-1-yl)-quinazolin-4-yl]-piperidine-1-carboxylic acid (4-morpholin-4-yl-phenyl)-amide] the figure was 0.211 µM; with `O=C(Nc1ccc(N2CCOCC2)cc1)N1CCC(c2ncnc3cc(N4CCNCC4)ccc23)CC1` [Example 140, 4-(7-Piperazin-1-yl-quinazolin-4-yl)-piperidine-1-carboxylic acid (4-morpholin-4-yl-phenyl)-amide], 0.031 µM.
With `CC(=O)N1CCN(c2ccc3c(C4CCN(C(=O)Nc5ccc(N6CCOCC6)cc5)CC4)ncnc3c2)CC1` [Example 141, 4-[7-(4-Acetyl-piperazin-1-yl)-quinazolin-4-yl]-piperidine-1-carboxylic acid (4-morpholin-4-yl-phenyl)-amide], the IC50 came to 0.002 µM.
With `CS(=O)(=O)N1CCN(c2ccc3c(C4CCN(C(=O)Nc5ccc(N6CCOCC6)cc5)CC4)ncnc3c2)CC1` [Example 142, 4-[7-(4-Methanesulfonyl-piperazin-1-yl)-quinazolin-4-yl]-piperidine-1-carboxylic acid (4-morpholin-4-yl-phenyl)-amide] the figure was 0.005 µM; with `CN(C)C(=O)N1CCN(c2ccc3c(C4CCN(C(=O)Nc5ccc(N6CCOCC6)cc5)CC4)ncnc3c2)CC1` [Example 143, 4-{4-[1-(4-Morpholin-4-yl-phenylcarbamoyl)-piperidin-4-yl]-quinazolin-7-yl}-piperazine-1-carboxylic acid dimethylamide], 0.001 µM; with `CN(C)CC(=O)N1CCN(c2ccc3c(C4CCN(C(=O)Nc5ccc(N6CCOCC6)cc5)CC4)ncnc3c2)CC1` [Example 144, 4-{7-[4-(2-Dimethylamino-acetyl)-piperazin-1-yl]-quinazolin-4-yl}-piperidine-1-carboxylic acid (4-morpholin-4-yl-phenyl)-amide], 0.17 µM.
`O=C(Nc1ccc(N2CCOCC2)cc1)N1CCC(c2ncnc3cc(N4CCOCC4)ccc23)CC1` [Example 145, 4-(7-Morpholin-4-yl-quinazolin-4-yl)-piperidine-1-carboxylic acid (4-morpholin-4-yl-phenyl)-amide] yielded an IC50 of 0.014 µM.
With `CS(=O)(=O)CCNc1ccc2c(C3CCN(C(=O)Nc4ccc(N5CCOCC5)cc4)CC3)ncnc2c1` [Example 146, 4-[7-(2-Methanesulfonyl-ethylamino)-quinazolin-4-yl]-piperidine-1-carboxylic acid (4-morpholin-4-yl-phenyl)-amide] the figure was 0.087 µM.
Under `O=C(Nc1ccc(N2CCCC2)cc1)N1CCC(c2ncnc3cc(OCCN4CCOC4=O)ccc23)CC1` [Example 147, 4-{7-[2-(2-Oxo-oxazolidin-3-yl)-ethoxy]-quinazolin-4-yl}-piperidine-1-carboxylic acid (4-pyrrolidin-1-yl-phenyl)-amide] stands 0.0002 µM; under `O=C(Nc1ccc(N2CCOCC2)cc1)N1CCC(c2ncnc3cc(OCCN4CCOC4=O)ccc23)CC1` [Example 148, 4-{7-[2-(2-Oxo-oxazolidin-3-yl)-ethoxy]-quinazolin-4-yl}-piperidine-1-carboxylic acid (4-morpholin-4-yl-phenyl)-amide], 0.083 µM; under `CN(C)[C@@H]1CCN(c2ccc3c(C4CCN(C(=O)Nc5ccc(N6CCCC6)cc5)CC4)ncnc3c2)C1` [Example 149, (R)-4-[7-(3-Dimethylamino-pyrrolidin-1-yl)-quinazolin-4-yl]-piperidine-1-carboxylic acid (4-pyrrolidin-1-yl-phenyl)-amide], 0.003 µM.
The compound `CN(C)[C@@H]1CCN(c2ccc3c(C4CCN(C(=O)Nc5ccc(N6CCOCC6)cc5)CC4)ncnc3c2)C1` [Example 150, (R)-4-[7-(3-Dimethylamino-pyrrolidin-1-yl)-quinazolin-4-yl]-piperidine-1-carboxylic acid (4-morpholin-4-yl-phenyl)-amide] came in with an IC50 of 0.019 µM.
On to `CN1CCC[C@H]1COc1ccc2c(C3CCN(C(=O)Nc4ccc(N5CCCC5)cc4)CC3)ncnc2c1` [Example 151, (S)-4-[7-(1-Methyl-pyrrolidin-2-ylmethoxy)-quinazolin-4-yl]-piperidine-1-carboxylic acid (4-pyrrolidin-1-yl-phenyl)-amide], for which the IC50 was determined as 0.045 µM.
In turn, `O=C(Nc1ccc(N2CCCC2)cc1)N1CCC(c2ncnc3cc(OCCN4CCC[C@H]4CO)ccc23)CC1` [Example 152, (S)-4-{7-[2-(2-Hydroxymethyl-pyrrolidin-1-yl)-ethoxy]-quinazolin-4-yl}-piperidine-1-carboxylic acid (4-pyrrolidin-1-yl-phenyl)-amide] came in with an IC50 of 0.042 µM.
With `O=C(Nc1ccc(N2CCOCC2)cc1)N1CCC(c2ncnc3cc(OCCN4CCC[C@H]4CO)ccc23)CC1` [Example 153, (S)-4-{7-[2-(2-Hydroxymethyl-pyrrolidin-1-yl)-ethoxy]-quinazolin-4-yl}-piperidine-1-carboxylic acid (4-morpholin-4-yl-phenyl)-amide] the figure was 0.11 µM; with `CC(=O)N1CC[C@@H](Oc2ccc3c(C4CCN(C(=O)Nc5ccc(N6CCCC6)cc5)CC4)ncnc3c2)C1` [Example 154, (R)-4-[7-(1-Acetyl-pyrrolidin-3-yloxy)-quinazolin-4-yl]-piperidine-1-carboxylic acid (4-pyrrolidin-1-yl-phenyl)-amide], 0.002 µM.
Under `CNC(=O)C1CCN(c2ccc3c(C4CCN(C(=O)Nc5ccc(N6CCCC6)cc5)CC4)ncnc3c2)CC1` [Example 155, 4-[7-(4-Carboxylic acid methylamide-piperidin-1-yl)-quinazolin-4-yl]-piperidine-1-carboxylic acid (4-pyrrolidin-1-yl-phenyl)-amide] stands 0.0004 µM; under `CN1CCN(CCOc2ccc3c(C4CCN(C(=O)Nc5ccc(N6CCOCC6)cc5)CC4)ncnc3c2)CC1` [Example 156, 4-{7-[2-(4-Methyl-piperazin-1-yl)-ethoxy]-quinazolin-4-yl}-piperidine-1-carboxylic acid (4-morpholin-4-yl-phenyl)-amide], 0.032 µM; under `CN1CCN(CCOc2ccc3c(C4CCN(C(=O)Nc5ccc(N6CCCC6)cc5)CC4)ncnc3c2)CC1` [Example 157, 4-{7-[2-(4-Methyl-piperazin-1-yl)-ethoxy]-quinazolin-4-yl}-piperidine-1-carboxylic acid (4-pyrrolidin-1-yl-phenyl)-amide], 0.016 µM.
Regarding `CN1CCN(CCCOc2ccc3c(C4CCN(C(=O)Nc5ccc(N6CCCC6)cc5)CC4)ncnc3c2)CC1` [Example 158, 4-{7-[3-(4-Methyl-piperazin-1-yl)-propoxy]-quinazolin-4-yl}-piperidine-1-carboxylic acid (4-pyrrolidin-1-yl-phenyl)-amide], the IC50 was 0.0004 µM.
With `CN1CCN(c2ccc3c(C4CCN(C(=O)Nc5ccc(N6CCCC6)cc5)CC4)ncnc3c2)CC1` [Example 159, 4-[7-(4-Methyl-piperazin-1-yl)-quinazolin-4-yl]-piperidine-1-carboxylic acid (4-pyrrolidin-1-yl-phenyl)-amide] the figure was 0.006 µM.
For the compound `CN1CCN(c2ccc3c(C4CCN(C(=O)Nc5ccc(N6CCCC6)nc5)CC4)ncnc3c2)CC1` [Example 160, 4-[7-(4-Methyl-piperazin-1-yl)-quinazolin-4-yl]-piperidine-1-carboxylic acid (6-pyrrolidin-1-yl-pyridin-3-yl)-amide], the IC50 worked out at 0.011 µM.

For orientation: IC50 means the point on the concentration scale where inhibition reaches its midpoint. A higher IC50 goes with weaker potency in that assay.
